# Test results from ChEMBL document CHEMBL1275354, “Anticonvulsant activity of 2,4(1H)-diarylimidazoles in mice and rats acute seizure models” (Bioorg Med Chem, 2010).
# The source made the active and inactive calls. The rule behind the calls is not given here.
# Key:
# Mus musculus [1] = assay: Neurotoxicity in ip dosed albino CF1 mouse assessed as minimum dose required to cause toxicity after 0.5 hrs by rotarod test; format: organism-based; details: in vivo
# Mus musculus [2] = assay: Neurotoxicity in albino CF1 mouse assessed as minimal motor impairment at 30 mg/kg, ip after 0.5 hrs by rotarod test; format: toxicity, organism-based; parameters: dose 30 mg/kg, route intraperitoneal; details: in vivo
# Mus musculus [3] = assay: Anticonvulsant activity in albino CF1 mouse assessed as protection against maximal electroshock-induced seizures at 100 mg/kg, ip after 0.5 hrs; format: functional, organism-based; parameters: dose 100 mg/kg
# Mus musculus [4] = assay: Anticonvulsant activity against subcutaneous metrazole-induced seizures in ip dosed albino CF1 mouse assessed as minimum effective dose after 4 hrs; format: functional; details: albino CF1, 4 h, read-out: MED
# Mus musculus [5] = assay: Neurotoxicity in albino CF1 mouse assessed as minimal motor impairment at 80 mg/kg, ip after 0.25 hrs by rotarod test; format: toxicity, organism-based; parameters: dose 80 mg/kg, route intraperitoneal; details: in vivo
# Mus musculus [6] = assay: Neurotoxicity in albino CF1 mouse assessed as minimal motor impairment at 200 mg/kg, ip after 0.25 hrs by rotarod test; format: toxicity, organism-based; parameters: dose 200 mg/kg, route intraperitoneal; details: in vivo
# Mus musculus [7] = assay: Anticonvulsant activity ip dosed albino CF1 mouse assessed as protection against subcutaneous metrazole-induced seizures after 0.25 hrs; format: functional; details: albino CF1, 0.25 h
# Mus musculus [8] = assay: Neurotoxicity in ip dosed albino CF1 mouse assessed as minimal motor impairment after 0.25 hrs by rotarod test; format: toxicity, organism-based; details: in vivo
# Rattus norvegicus [9] = assay: Neurotoxicity in albino Sprague-Dawley rat assessed as minimal motor impairment at 30 mg/kg, po by rotarod test; format: toxicity, organism-based; parameters: dose 30 mg/kg, route oral; details: in vivo
# Mus musculus [10] = assay: Anticonvulsant activity ip dosed albino CF1 mouse assessed as protection against maximal electroshock-induced seizures after 0.25 hrs; format: functional
# Rattus norvegicus [11] = assay: Anticonvulsant activity in albino Sprague-Dawley rat assessed as protection against maximal electroshock-induced seizures at 30 mg/kg, po after 0.25 hrs; format: functional, organism-based; parameters: dose 30 mg/kg
# Rattus norvegicus [12] = assay: Anticonvulsant activity in albino Sprague-Dawley rat assessed as protection against maximal electroshock-induced seizures at 30 mg/kg, po after 0.5 hrs; format: functional, organism-based; parameters: dose 30 mg/kg
# Rattus norvegicus [13] = assay: Anticonvulsant activity in albino Sprague-Dawley rat assessed as protection against maximal electroshock-induced seizures at 30 mg/kg, po after 1 hr; format: functional, organism-based; parameters: dose 30 mg/kg
# Rattus norvegicus [14] = assay: Anticonvulsant activity in albino Sprague-Dawley rat assessed as protection against maximal electroshock-induced seizures at 30 mg/kg, po after 2 hrs; format: functional, organism-based; parameters: dose 30 mg/kg
# Rattus norvegicus [15] = assay: Anticonvulsant activity in albino Sprague-Dawley rat assessed as protection against maximal electroshock-induced seizures at 30 mg/kg, po after 4 hrs; format: functional, organism-based; parameters: dose 30 mg/kg
# Mus musculus [16] = assay: Neurotoxicity in albino CF1 mouse assessed as minimal motor impairment at 30 mg/kg, ip after 4 hrs by rotarod test; format: toxicity, organism-based; parameters: dose 30 mg/kg, route intraperitoneal; details: in vivo
# Mus musculus [17] = assay: Neurotoxicity in albino CF1 mouse assessed as minimal motor impairment at 100 mg/kg, ip after 4 hrs by rotarod test; format: toxicity, organism-based; parameters: dose 100 mg/kg, route intraperitoneal; details: in vivo
# Mus musculus [18] = assay: Neurotoxicity in albino CF1 mouse assessed as minimal motor impairment at 300 mg/kg, ip after 0.5 hrs by rotarod test; format: toxicity, organism-based; parameters: dose 300 mg/kg, route intraperitoneal; details: in vivo
# Mus musculus [19] = assay: Anticonvulsant activity in albino CF1 mouse assessed as protection against maximal electroshock-induced seizures at 100 mg/kg, ip after 4 hrs; format: functional, organism-based; parameters: dose 100 mg/kg
# Mus musculus [20] = assay: Anticonvulsant activity in albino CF1 mouse assessed as protection against maximal electroshock-induced seizures at 300 mg/kg, ip after 0.5 hrs; format: functional, organism-based; parameters: dose 300 mg/kg
# Mus musculus [21] = assay: Anticonvulsant activity in albino CF1 mouse assessed as protection against maximal electroshock-induced seizures at 300 mg/kg, ip after 4 hrs; format: functional, organism-based; parameters: dose 300 mg/kg
# Mus musculus [22] = assay: Anticonvulsant activity in albino CF1 mouse assessed as protection against subcutaneous metrazole-induced seizures at 30 mg/kg, ip after 0.5 hrs; format: functional, organism-based; parameters: dose 30 mg/kg
# Mus musculus [23] = assay: Anticonvulsant activity in albino CF1 mouse assessed as protection against subcutaneous metrazole-induced seizures at 30 mg/kg, ip after 4 hrs; format: functional, organism-based; parameters: dose 30 mg/kg
# Mus musculus [24] = assay: Anticonvulsant activity in albino CF1 mouse assessed as protection against subcutaneous metrazole-induced seizures at 100 mg/kg, ip after 0.5 hrs; format: functional, organism-based; parameters: dose 100 mg/kg
# Mus musculus [25] = assay: Anticonvulsant activity in albino CF1 mouse assessed as protection against subcutaneous metrazole-induced seizures at 100 mg/kg, ip after 4 hrs; format: functional, organism-based; parameters: dose 100 mg/kg
# Mus musculus [26] = assay: Anticonvulsant activity in albino CF1 mouse assessed as protection against subcutaneous metrazole-induced seizures at 300 mg/kg, ip after 0.5 hrs; format: functional, organism-based; parameters: dose 300 mg/kg
# Mus musculus [27] = assay: Anticonvulsant activity in albino CF1 mouse assessed as protection against subcutaneous metrazole-induced seizures at 300 mg/kg, ip after 4 hrs; format: functional, organism-based; parameters: dose 300 mg/kg
# Mus musculus [28] = assay: Anticonvulsant activity in albino CF1 mouse assessed as protection against maximal electroshock-induced seizures at 30 mg/kg, ip after 0.5 hrs; format: functional, organism-based; parameters: dose 30 mg/kg
# Mus musculus [29] = assay: Anticonvulsant activity in albino CF1 mouse assessed as protection against maximal electroshock-induced seizures at 30 mg/kg, ip after 4 hrs; format: functional, organism-based; parameters: dose 30 mg/kg
# Mus musculus [30] = assay: Neurotoxicity in ip dosed albino CF1 mouse assessed as minimum dose required to cause toxicity after 4 hrs by rotarod test; format: organism-based; details: in vivo
# Mus musculus [31] = assay: Anticonvulsant activity against maximal electroshock-induced seizures in ip dosed albino CF1 mouse assessed as minimum effective dose after 0.5 hrs; format: functional; details: read-out: MED
# Mus musculus [32] = assay: Anticonvulsant activity against maximal electroshock-induced seizures in ip dosed albino CF1 mouse assessed as minimum effective dose after 4 hrs; format: functional; details: read-out: MED
# Mus musculus [33] = assay: Anticonvulsant activity against subcutaneous metrazole-induced seizures in ip dosed albino CF1 mouse assessed as minimum effective dose after 0.5 hrs; format: functional; details: albino CF1, 0.5 h, read-out: MED
# Mus musculus [34] = assay: Neurotoxicity in albino CF1 mouse assessed as minimal motor impairment at 30 to 300 mg/kg, ip after 0.5 hrs by rotarod test; details: in vivo
structure (smiles),measurement,setting,value
c1ccc(-c2c[nH]c(-c3ccccc3)n2)cc1,MED,Mus musculus [1],100 mg/kg
same,Activity,Mus musculus [2],Non-toxic
same,Activity,Mus musculus [3],Active
same,minimal effective dose,Mus musculus [4],> 300 mg/kg
same,Activity,Mus musculus [5],Non-toxic
same,Activity,Mus musculus [6],Non-toxic
same,ED50,Mus musculus [7],161 mg/kg
same,TD50,Mus musculus [8],126.8 mg/kg
same,Activity,Rattus norvegicus [9],Non-toxic
same,ED50,Mus musculus [10],61.7 mg/kg
same,Activity,Rattus norvegicus [11],inactive
same,Activity,Rattus norvegicus [12],inactive
same,Activity,Rattus norvegicus [13],inactive
same,Activity,Rattus norvegicus [14],inactive
same,Activity,Rattus norvegicus [15],inactive
same,Activity,Mus musculus [16],Non-toxic
same,Activity,Mus musculus [17],Non-toxic
same,Activity,Mus musculus [18],Toxic
same,Activity,Mus musculus [19],inactive
same,Activity,Mus musculus [20],Active
same,Activity,Mus musculus [21],Active
same,Activity,Mus musculus [22],inactive
same,Activity,Mus musculus [23],inactive
same,Activity,Mus musculus [24],inactive
same,Activity,Mus musculus [25],inactive
same,Activity,Mus musculus [26],inactive
same,Activity,Mus musculus [27],inactive
same,Activity,Mus musculus [28],Active
same,Activity,Mus musculus [29],inactive
same,MED,Mus musculus [30],100 mg/kg
same,minimal effective dose,Mus musculus [31],> 30 mg/kg
same,minimal effective dose,Mus musculus [32],100 mg/kg
same,minimal effective dose,Mus musculus [33],> 300 mg/kg
same,Activity,Mus musculus [34],Non-toxic
